Results reported in patent US8080544B2, “Prodrugs of CGRP receptor antagonists” (Merck Sharp & Dohme Corp., priority 2008, dated 2011).
Values after ≈ are worked out from the molar mass of the structure shown.

Columns and labels:
Aqueous solubility = type: physicochemical; settings: for solubility: aqueous solution
Source text: The compounds of the present invention may have improved aqueous solubility compared with telcagepant.

[1] = In vivo conversion to telcagepant after IV dosing, rat (plasma AUC by LC/MS); settings: 3.53 umol/kg, IV dose 3.53 μmol/kg, DMSO vehicle, plasma AUC of Compound 1 (telcagepant)
Source text: The compounds of the present invention may be efficiently converted to give parent telcagepant in vivo. For illustrative purposes, data for the in vivo conversion of Example 1 to telcagepant in preclinical species are shown in Table 2.

| SMILES | solubility (Aqueous solubility; aqueous buffer, pH 4.0) | solubility (Aqueous solubility; aqueous buffer, pH 9.0) | solubility (Aqueous solubility; aqueous buffer, pH 2.0) | solubility (Aqueous solubility; pH 7.3, aqueous buffer) | aqueous solubility (in words) (Aqueous solubility; general statement, no pH given) | AUC [1] |
| --- | --- | --- | --- | --- | --- | --- |
| O=C(N[C@@H]1CC[C@@H](c2cccc(F)c2F)CN(CC(F)(F)F)C1=O)N1CCC(n2c(=O)n(COP(=O)([O-])O)c3ncccc32)CC1.[Na+] [Example 1, {1-[1-({[(3R,6S)-6-(2,3-Difluorophenyl)-2-oxo-1-(2,2,2-trifluoroethyl)azepan-3-yl]amino}carbonyl)piperidin-4-yl]-2-oxo-1,2-dihydro-3H-imidazo[4,5-b]pyridin-3-yl}methyl hydrogen sodium phosphate] | > 150000 µg/mL | > 150000 µg/mL |  |  |  |  |
| O=C(N[C@@H]1CC[C@@H](c2cccc(F)c2F)CN(CC(F)(F)F)C1=O)N1CCC(n2c(=O)[nH]c3ncccc32)CC1 [Telcagepant, N-[(3R,6S)-6-(2,3-difluorophenyl)-2-oxo-1-(2,2,2-trifluoroethyl)azepan-3-yl]-4-(2-oxo-2,3-dihydro-1H-imidazo[4,5-b]pyridine-1-yl)piperidin-1-carboxamide] |  |  | 77 µg/mL (≈ 136 µM) | 31 µg/mL (≈ 54.7 µM) | low aqueous solubility | 6.46 µM·h |
